Assay results taken from patent publication US10023543B2 (CELGENE QUANTICEL RESEARCH, INC., priority 2014, dated 2018).

Legend:
THP-1 (AML) cells = assay: LSD1 CD11b cellular assay (flow cytometry); assay type: cell-based; conditions: Homo sapiens, THP-1, 96 h; CD11b expressing cells, 4 days; read-out: THP-1 IC50
Kasumi-1 = Kasumi-1 AML cell line proliferation assay (Cell-MTS assay); assay type: cell-based; conditions: Homo sapiens, 168 hours
Text: Colorimetric cellular assay to assess the ability of LSD-1 small molecule inhibitors to effect the proliferation of the established AML cancer cell line Kasumi-1.
This Cell-MTS assay is a 7-day plate based colorimetric assay which quantifies the amount of newly generated NADH in the presence and absence of test compound. These NADH levels are used as a proxy for the quantification of cancer cell proliferation.
The established cancer cell line Kasumi-1 with a verified p53 mutation were purchased from American Type Culture Collection (ATCC) and routinely passaged according to ATCC published protocols. For routine assay these cells were seeded at a density of 20,000 cells per 96-well. […] At the end of this compound incubation period, 80 μl of media is removed and 20 μL of CellTiter 96® AQueous Non-Radioactive Cell Proliferation Assay solution (Promega) is added. The cells are incubated until the OD490 is >0.6. IC50 values are calculated using the IDBS XLfit software package and include background subtracted OD490 values and normalization to DMSO controls.

full-length human LSD1 = full-length human LSD1 (Homo sapiens (Human), UniProt O60341); assay: In vitro enzyme inhibition assay LSD-1 (TR-FRET); assay type: biochemical; conditions: H3K4me1-biotin peptide

Row | IC50 (THP-1 (AML) cells) [µM] | IC50 (full-length human LSD1) [µM] | Compound | IC50 (Kasumi-1) [µM]
1 | < 0.1 | – | Cn1c(N2CCC(N)CC2)nc(-c2ccc(C#N)c(F)c2)c(-c2ccc3c(cnn3C)c2)c1=O [Example 35, 4-[2-(4-amino-piperidin-1-yl)-1-methyl-5-(1-methyl-1H-indazol-5-yl)-6-oxo-1,6-dihydro-pyrimidin-4-yl]-2-fluoro-benzonitrile] | < 0.1
2 | < 0.1 | – | COc1ccc(-c2c(-c3ccc(C#N)c(F)c3)nc(N3CCC(N)CC3)n(C)c2=O)cn1 [Example 8, 4-[2-(4-amino-piperidin-1-yl)-5-(6-methoxy-pyridin-3-yl)-1-methyl-6-oxo-1,6-dihydro-pyrimidin-4-yl]-2-fluoro-benzonitrile] | < 0.1
3 | < 0.1 | – | CNC1CCN(c2nc(-c3ccc(C#N)c(F)c3)c(-c3ccc4nn(C)cc4c3)c(=O)n2C)CC1 [Example 65, 2-fluoro-4-[1-methyl-2-(4-methylamino-piperidin-1-yl)-5-(2-methyl-2H-indazol-5-yl)-6-oxo-1,6-dihydro-pyrimidin-4-yl]-benzonitrile] | < 0.1
4 | < 0.1 | < 0.1 | Cn1c(N2CCC(N)CC2)nc(-c2ccc(C#N)c(F)c2)c(-c2ccc(OCCO)cc2)c1=O [Example 96, 4-[2-(4-aminopiperidin-1-yl)-5-[4-(2-hydroxyethoxy)phenyl]-1-methyl-6-oxopyrimidin-4-yl]-2-fluorobenzonitrile] | –
